According to patent US20090131380A1, “Novel pharmaceutical composition for topical treatment of skin psoriasis and the treatment method thereof” (priority 2007, published 2009):

Columns and labels:
skin psoriasis = details: cited from earlier work; for clinical antipsoriatic efficacy: topical, 0.05% (w/w) in Locobase® unctuous creme, 50 μg/cm^2/24 h, 35 days; for effect on psoriatic rash (irritation / worsening): topically administered
[1] = system: psoriatic plaques (skin psoriasis); assay: Topical treatment trial of psoriatic plaques in one psoriasis patient (Tetrac, Control and Daivonex regimens); assay type: in vivo, human; details: twice a day
Experimental: A psoriasis patient having almost symmetrical psoriatic plaques on the lateral sides of both elbows (l.dx: 41 cm^2 and l.sin: 44 cm^2) and a psoriatic plaque (53 cm^2) on right calf was chosen for the trial.
a) An ointment (Locobase® unctuous creme, Astellas Pharma A/S Glostrup, Denmark) in which 500 μg/g 3,3′,5,5′-tetraiodothyroacetic acid (0.05%) of GMP-quality (Pharmatory Ltd., Oulu, Finland) was mixed was used as an ex tempore preparation for the concerned treatment purpose (hereinafter referred to as “Tetrac”).
b) A 50 μg/g calcipotriol (0.005%) containing creme (Daivonex®, LEO Pharma A/S, Ballerup, Denmark) was available as commercial pharmaceutical product (hereinafter referred to as “Daivonex®”).
c) A betamethasone 17-valerate-containing creme (Bemetson®, Orion oyj, Espoo, Finland) responding betamethasone 1 mg/g (0.1%) was available as a commercial product (hereinafter referred to as “Bemetson®”).
a) The psoriatic lesion of the left elbow of the patient was selected as the target of the topical treatment with Tetrac, the result of which is shown in left column of FIG. 1—“The Tetrac Regimen”. […]

plaque psoriasis = details: placebo-controlled double-blind study, carried out in 1997; cited from earlier work
psoriasis = details: topical Triac; WO96/40048; cited from earlier work

| Compound | clinical antipsoriatic efficacy (skin psoriasis) | effect on psoriatic rash (irritation / worsening) (skin psoriasis) | also measured |
| --- | --- | --- | --- |
| N[C@H](Cc1cc(I)c(Oc2cc(I)c(O)c(I)c2)c(I)c1)C(=O)O [D-thyroxine] | ineffective | do not irritate or worsen psoriatic rash |  |
| N[C@@H](Cc1cc(I)c(Oc2cc(I)c(O)c(I)c2)c(I)c1)C(=O)O [L-thyroxine] |  | greatly worsen psoriatic rash |  |
| N[C@@H](Cc1cc(I)c(Oc2ccc(O)c(I)c2)c(I)c1)C(=O)O [L-triiodothyronine] |  | greatly worsen psoriatic rash |  |
| O=C(O)Cc1cc(I)c(Oc2cc(I)c(O)c(I)c2)c(I)c1 [Tetrac, 3,3′,5,5′-tetraiodothyroacetic acid] | strong clinical antipsoriatic efficacy |  | clinical antipsoriatic effect on psoriatic lesion ([1]; after five weeks, photographs FIG. 1 / FIG. 2): clear clinical antipsoriatic effect; clinical antipsoriatic effect / healing of psoriatic plaque at end of trial ([1]; six weeks, Bemetson® (betamethasone) concurrently added for the final sixth week): surprisingly more potent clinical antipsoriatic effect |
| O=C(O)CCc1cc(I)c(Oc2cc(I)c(O)c(I)c2)c(I)c1 [Tetraprop, 3,3′,5,5′-tetraiodothyropropionic acid] | strong clinical antipsoriatic efficacy |  |  |
| O=C(O)Cc1cc(I)c(Oc2ccc(O)c(I)c2)c(I)c1 [Triac, 3,3′5-triiodothyroacetic acid] | indeed ineffective | do not irritate or worsen psoriatic rash | efficacy in the topical treatment of plaque psoriasis (plaque psoriasis): ineffective; experiment persons in whom an antipsoriatic effect had emerged (psoriasis): 60% |
